Experimental data as given in PMC12649549, “Sequence Permutation Generated Lysine and Tryptophan-Rich Antimicrobial Peptides with Enhanced Therapeutic Index” (Antibiotics, 2025).
Where two headings read alike, the source gives them in different places.

Tests used:
[1] = system: A. baumannii 14B0091 (Acinetobacter sp., BCRC number 14B0091)
In short: (§1)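 Broth microdilution per CLSI in Müller-Hinton broth and modified LYM broth (pH 7.4; variants with 300–50 mM NaCl, 2.5–0.5 mM MgCl2, or pH 6.5–4.5). Inoculum 5 × 10^5 CFU/mL; peptides at final 50 to 0.78 µg/mL, twofold series. MIC reported; three independent repeats.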

[2] = system: S. aureus ATCC 33591
In short: as §1

[3] = system: A. baumannii 14B00100 (Acinetobacter sp., BCRC number 14B0100)
In short: as §1

[4] = system: S. aureus ATCC 33593
In short: as §1

[5] = system: Pseudomonas aeruginosa Migula (ATCC 27853)
In short: as §1

[6] = system: S. aureus ATCC 25923
In short: as §1

[7] = system: Escherichia coli (ATCC 25922)
In short: as §1

[8] = LYM broth, 0 mM NaCl, 16 h, 37 °C
[9] = LYM broth, 50 mM NaCl, 16 h, 37 °C
[10] = LYM broth, 100 mM NaCl, 16 h, 37 °C
[11] = LYM broth, 200 mM (NaCl), 16 h, 37 °C
[12] = LYM broth, 300 mM (NaCl), 16 h, 37 °C
[13] = MH broth, 5 × 10^5 CFU/mL, 16 h, 37 °C, repeated three times

Ac-KWLAKKKKWRKWL-NH2 [Peptide W5K07]
MIC [1, 8]: 3.13 µg/mL
MIC ([1]; LYM broth, 0.5 mM MgCl2): 3.13 µg/mL
MIC ([1]; LYM broth, 1.5 mM MgCl2): 3.13 µg/mL
MIC ([1]; LYM broth, 2.5 mM MgCl2): 3.13 µg/mL
MIC [1, 9]: 6.25 µg/mL
MIC [1, 10]: 6.25 µg/mL
MIC [1, 11]: 50 µg/mL
MIC [1, 12]: >50 µg/mL
MIC ([1]; LYM broth, pH 4.5): 6.25 µg/mL
MIC ([1]; LYM broth, pH 5.5): 3.13 µg/mL
MIC ([1]; LYM broth, pH 6.5): 3.13 µg/mL
MIC [1, 13]: 12.5 µg/mL
MIC [2, 8]: 25 µg/mL
MIC ([2]; LYM broth, 0.5 mM MgCl2): 25 µg/mL
MIC ([2]; LYM broth, 1.5 mM MgCl2): 25 µg/mL
MIC ([2]; LYM broth, 2.5 mM MgCl2): 25 µg/mL
MIC [2, 9]: 25 µg/mL
MIC [2, 10]: 50 µg/mL
MIC [2, 11]: 50 µg/mL
MIC [2, 12]: >50 µg/mL
MIC ([2]; LYM broth, pH 4.5): 25 µg/mL
MIC ([2]; LYM broth, pH 5.5): 25 µg/mL
MIC ([2]; LYM broth, pH 6.5): 12.5 µg/mL
MIC [2, 13]: >50 µg/mL
MIC [3, 8]: 3.13 µg/mL
MIC ([3]; LYM broth, 0.5 mM MgCl2): 3.13 µg/mL
MIC ([3]; LYM broth, 1.5 mM MgCl2): 3.13 µg/mL
MIC ([3]; LYM broth, 2.5 mM MgCl2): 3.13 µg/mL
MIC [3, 9]: 6.25 µg/mL
MIC [3, 10]: 6.25 µg/mL
MIC [3, 11]: 25 µg/mL
MIC [3, 12]: 50 µg/mL
MIC ([3]; LYM broth, pH 4.5): 3.13 µg/mL
MIC ([3]; LYM broth, pH 5.5): 3.13 µg/mL
MIC ([3]; LYM broth, pH 6.5): 3.13 µg/mL
MIC [3, 13]: 12.5 µg/mL
MIC [4, 8]: 25 µg/mL
MIC ([4]; LYM broth, 0.5 mM MgCl2): 25 µg/mL
MIC ([4]; LYM broth, 1.5 mM MgCl2): 25 µg/mL
MIC ([4]; LYM broth, 2.5 mM MgCl2): 25 µg/mL
MIC [4, 9]: 25 µg/mL
MIC [4, 10]: 50 µg/mL
MIC [4, 11]: 50 µg/mL
MIC [4, 12]: >50 µg/mL
MIC ([4]; LYM broth, pH 4.5): 25 µg/mL
MIC ([4]; LYM broth, pH 5.5): 12.5 µg/mL
MIC ([4]; LYM broth, pH 6.5): 12.5 µg/mL
MIC [4, 13]: >50 µg/mL
MIC [5, 8]: 6.25 µg/mL
MIC ([5]; LYM broth, 0.5 mM MgCl2): 12.5 µg/mL
MIC ([5]; LYM broth, 1.5 mM MgCl2): 12.5 µg/mL
MIC ([5]; LYM broth, 2.5 mM MgCl2): 25 µg/mL
MIC [5, 9]: 12.5 µg/mL
MIC [5, 10]: 25 µg/mL
MIC [5, 11]: >50 µg/mL
MIC [5, 12]: >50 µg/mL
MIC ([5]; LYM broth, pH 4.5): 12.5 µg/mL
MIC ([5]; LYM broth, pH 5.5): 6.25 µg/mL
MIC ([5]; LYM broth, pH 6.5): 3.13 µg/mL
MIC [5, 13]: 50 µg/mL
MIC [6, 8]: 6.25 µg/mL
MIC ([6]; LYM broth, 0.5 mM MgCl2): 6.25 µg/mL
MIC ([6]; LYM broth, 1.5 mM MgCl2): 12.5 µg/mL
MIC ([6]; LYM broth, 2.5 mM MgCl2): 12.5 µg/mL
MIC [6, 9]: 12.5 µg/mL
MIC [6, 10]: 25 µg/mL
MIC [6, 11]: 50 µg/mL
MIC [6, 12]: >50 µg/mL
MIC ([6]; LYM broth, pH 4.5): 12.5 µg/mL
MIC ([6]; LYM broth, pH 5.5): 6.25 µg/mL
MIC ([6]; LYM broth, pH 6.5): 3.13 µg/mL
MIC [6, 13]: 50 µg/mL
MIC [7, 8]: 12.5 µg/mL
MIC ([7]; LYM broth, 0.5 mM MgCl2): 12.5 µg/mL
MIC ([7]; LYM broth, 1.5 mM MgCl2): 25 µg/mL
MIC ([7]; LYM broth, 2.5 mM MgCl2): 25 µg/mL
MIC [7, 9]: 25 µg/mL
MIC [7, 10]: 50 µg/mL
MIC [7, 11]: >50 µg/mL
MIC [7, 12]: >50 µg/mL
MIC ([7]; LYM broth, pH 4.5): 12.5 µg/mL
MIC ([7]; LYM broth, pH 5.5): 6.25 µg/mL
MIC ([7]; LYM broth, pH 6.5): 6.25 µg/mL
MIC [7, 13]: 50 µg/mL

Ac-RKWLKWLAKKKKW-NH2 [Peptide W5K03]
MIC [1, 8]: 1.56 µg/mL
MIC ([1]; LYM broth, 0.5 mM MgCl2): 1.56 µg/mL
MIC ([1]; LYM broth, 1.5 mM MgCl2): 3.13 µg/mL
MIC ([1]; LYM broth, 2.5 mM MgCl2): 3.13 µg/mL
MIC [1, 9]: 3.13 µg/mL
MIC [1, 10]: 3.13 µg/mL
MIC [1, 11]: 6.25 µg/mL
MIC [1, 12]: 25 µg/mL
MIC ([1]; LYM broth, pH 4.5): 3.13 µg/mL
MIC ([1]; LYM broth, pH 5.5): 3.13 µg/mL
MIC ([1]; LYM broth, pH 6.5): 1.56 µg/mL
MIC [1, 13]: 6.25 µg/mL
MIC [2, 8]: 25 µg/mL
MIC ([2]; LYM broth, 0.5 mM MgCl2): 25 µg/mL
MIC ([2]; LYM broth, 1.5 mM MgCl2): 25 µg/mL
MIC ([2]; LYM broth, 2.5 mM MgCl2): 50 µg/mL
MIC [2, 9]: 50 µg/mL
MIC [2, 10]: 50 µg/mL
MIC [2, 11]: >50 µg/mL
MIC [2, 12]: >50 µg/mL
MIC ([2]; LYM broth, pH 4.5): 25 µg/mL
MIC ([2]; LYM broth, pH 5.5): 25 µg/mL
MIC ([2]; LYM broth, pH 6.5): 12.5 µg/mL
MIC [2, 13]: >50 µg/mL
MIC [3, 8]: 1.56 µg/mL
MIC ([3]; LYM broth, 0.5 mM MgCl2): 3.13 µg/mL
MIC ([3]; LYM broth, 1.5 mM MgCl2): 3.13 µg/mL
MIC ([3]; LYM broth, 2.5 mM MgCl2): 3.13 µg/mL
MIC [3, 9]: 3.13 µg/mL
MIC [3, 10]: 3.13 µg/mL
MIC [3, 11]: 6.25 µg/mL
MIC [3, 12]: 12.5 µg/mL
MIC ([3]; LYM broth, pH 4.5): 1.56 µg/mL
MIC ([3]; LYM broth, pH 5.5): 1.56 µg/mL
MIC ([3]; LYM broth, pH 6.5): 1.56 µg/mL
MIC [3, 13]: 12.5 µg/mL
MIC [4, 8]: 25 µg/mL
MIC ([4]; LYM broth, 0.5 mM MgCl2): 25 µg/mL
MIC ([4]; LYM broth, 1.5 mM MgCl2): 25 µg/mL
MIC ([4]; LYM broth, 2.5 mM MgCl2): 50 µg/mL
MIC [4, 9]: 25 µg/mL
MIC [4, 10]: 50 µg/mL
MIC [4, 11]: >50 µg/mL
MIC [4, 12]: >50 µg/mL
MIC ([4]; LYM broth, pH 4.5): 25 µg/mL
MIC ([4]; LYM broth, pH 5.5): 25 µg/mL
MIC ([4]; LYM broth, pH 6.5): 12.5 µg/mL
MIC [4, 13]: >50 µg/mL
MIC [5, 8]: 6.25 µg/mL
MIC ([5]; LYM broth, 0.5 mM MgCl2): 6.25 µg/mL
MIC ([5]; LYM broth, 1.5 mM MgCl2): 12.5 µg/mL
MIC ([5]; LYM broth, 2.5 mM MgCl2): 12.5 µg/mL
MIC [5, 9]: 12.5 µg/mL
MIC [5, 10]: 25 µg/mL
MIC [5, 11]: 25 µg/mL
MIC [5, 12]: >50 µg/mL
MIC ([5]; LYM broth, pH 4.5): 12.5 µg/mL
MIC ([5]; LYM broth, pH 5.5): 6.25 µg/mL
MIC ([5]; LYM broth, pH 6.5): 3.13 µg/mL
MIC [5, 13]: 50 µg/mL
MIC [6, 8]: 6.25 µg/mL
MIC ([6]; LYM broth, 0.5 mM MgCl2): 6.25 µg/mL
MIC ([6]; LYM broth, 1.5 mM MgCl2): 12.5 µg/mL
MIC ([6]; LYM broth, 2.5 mM MgCl2): 12.5 µg/mL
MIC [6, 9]: 12.5 µg/mL
MIC [6, 10]: 25 µg/mL
MIC [6, 11]: >50 µg/mL
MIC [6, 12]: >50 µg/mL
MIC ([6]; LYM broth, pH 4.5): 6.25 µg/mL
MIC ([6]; LYM broth, pH 5.5): 3.13 µg/mL
MIC ([6]; LYM broth, pH 6.5): 3.13 µg/mL
MIC [6, 13]: 50 µg/mL
MIC [7, 8]: 6.25 µg/mL
MIC ([7]; LYM broth, 0.5 mM MgCl2): 12.5 µg/mL
MIC ([7]; LYM broth, 1.5 mM MgCl2): 25 µg/mL
MIC ([7]; LYM broth, 2.5 mM MgCl2): 25 µg/mL
MIC [7, 9]: 25 µg/mL
MIC [7, 10]: 50 µg/mL
MIC [7, 11]: >50 µg/mL
MIC [7, 12]: >50 µg/mL
MIC ([7]; LYM broth, pH 4.5): 6.25 µg/mL
MIC ([7]; LYM broth, pH 5.5): 6.25 µg/mL
MIC ([7]; LYM broth, pH 6.5): 3.13 µg/mL
MIC [7, 13]: 50 µg/mL
